Data on two compounds can be found in patent US10335420B2, “Nanoparticle-based tumor-targeted drug delivery” (The Scripps Research Institute, priority 2010, dated 2019).

Like-named read-outs stand apart in the source and are kept apart here.

Data set [1] is classed as in vivo. As to conditions: 5 mg/kg doxorubicin i.v. How it is done: The dose of doxorubicin for all groups was 5 mg/kg.
Female BALB/c mice were injected orthotopically with 4TO7 breast tumor cells. Tumors were allowed to establish and reach a size of approximately 500 mm^3 prior to treatment. […] Doxorubicin was administered at about 5 mg/kg in 200 μl of PBS for all groups; n=5 mice per group.

In another data set the test system is 4TO7 orthotopic tumors. As to the kind of experiment: Doxorubicin biodistribution in tumor-bearing mice by fluorescence microscopy. Type of data set: in vivo. Particulars: two i.v. injections, about 24 h after the last injection. How it is done: Doxorubicin was also loaded into RR-11a^− NPs (NP-Dox) as a control. […] Data represent means±s.e.m. The percentage of the drug uptake concentration was determined by comparing the MFI of RDZ-218, NP-Dox, and Free Dox-treated cells with that of serially diluted doxorubicin; see FIG. 2b. […] Data is shown relative to untreated cells (Control); n=3 wells per group. Data represent means±s.e.m. *p<0.05, **p<0.005. 4TO7 cells were injected into the inguinal mammary fat pad of female BALB/c mice. Tumors were allowed to establish for about 5 d, to a size of approximately 500 mm^3, after which mice were given two i.v. injections with RDZ-218, NP-Dox or Free Dox. Mice were sacrificed about 24 h after the last injection and tissues were isolated and immediately analyzed by fluorescence microscopy to detect distribution of doxorubicin; see FIG. 2d. Tissue sections were also stained with DAPI to visualize cell nuclei; n=2 mice per group; scale bars, 100 μm.

A further data set concerns 4TO7 tumors. As to the kind of experiment: 4TO7 tumor growth in mice treated with Leg-NP-CDDO. The data set is classed as in vivo, BALB/c mice. Particulars: 8 i.v. injections. How it is done: In vivo tumor studies. 4TO7 (5×10^3) cells or MMTV-Neu (1×10^4) primary tumor cells were injected orthotopically into female BALB/c or FVB/NJ mice, respectively. NPs in 200 μl of PBS (about 1.36×10^13 particles) were administered i.v. and tumor dimensions measured using digital microcalipers. Tumor volume was calculated using the formula [(a^2×b)/2], where ‘a’ is the larger of two perpendicular diameters. For recurrence studies, primary tumors were surgically removed and mice re-challenged orthotopically in the contralateral mammary fat pad. Mice were vaccinated 3 times orally at 1 week intervals by gavage with attenuated salmonella typhimuirum (1×10^8 CFU per mouse) transduced with either pNeuTm (provided by Wei-Zen Wei, Karmanos Cancer Center, Detroit, Mich., USA) or empty vector.
Leg-NP-CDDO suppresses growth of murine breast tumors. To evaluate the in vivo effects of Leg-NP-CDDO, BALB/c mice were orthotopically challenged with about 5×10^3 4TO7 tumor cells and 4 days later, treated them with 8 i.v. injections of Leg-NP-CDDO or controls (FIG. 7A).

Take `COc1cccc2c1C(=O)c1c(O)c3c(c(O)c1C2=O)C[C@@](O)(C(=O)CO)C[C@@H]3O[C@H]1C[C@H](N)[C@H](O)[C@H](C)O1` [Free Dox, doxorubicin]: the “number of mice surviving, out of a total of 5” value in data set [1] (after treatment 0) is 5/5; in data set [1] (after treatment 1, 24-hour intervals) it was 0/5. In the data set on 4TO7 orthotopic tumors, the “doxorubicin fluorescence in tumors” value is “strikingly reduced or punctate”.

For `CC1(C)CC[C@]2(C(=O)n3ccnc3)CC[C@]3(C)[C@H](C(=O)C=C4[C@@]5(C)C=C(C#N)C(=O)C(C)(C)[C@@H]5CC[C@]43C)[C@@H]2C1` [CDDO-Im, 1-[2-cyano-3-,12-dioxooleana-1,9(11)-dien-28-oyl]imidazole], the “dose required for effective Stat3 inhibition” value in the data set with STAT-3 is 100 nmol/L. In addition, the primary tumor growth result in the data set on 4TO7 tumors is reported as “markedly less effective”.
